Like-named read-outs stand apart in the source and are kept apart here.
Key:
[1] = tested on: weeds
[2] = tested on: "Young" soybean; conditions: range 1-8 mgs/Kg soil; sharpest increases at 1 and 2 mgs rates; soybean grown 7 weeks
Description: (§1) In this example, the soil used was from a cotton field infested with the root-knot [Meloidogyne incognita], and lance [Hoplolaimus galeatus], nematodes—each a plant parasitic specie. The soil was mixed with washed siliceous river sand (in equal parts by volume), apportioned into one kg amounts in 4 L plastic bags and placed in pots. The test solution was prepared by dissolving 0.500 gms KN3 in an aqueous solution containing 50 mls of a 10% casein [w/v] solution in 0.1N NaOH and diluting with water to a final volume of 500 mls; the solution thus contained 1 mg KN3/ml. The solution was added to soil at rates of 1, 2, 4, 6, 8, and 10 mls/Kg soil. There were for each treatment and controls [no solution], a total of 7 pots each containing 1 Kg of soil. After application of the solution, for each rate, each pot was covered with a plastic bag. The pots were placed on a greenhouse bench and were arranged in a randomized block design. After 10 days the covers were removed, soil samples were collected from each pot for nematological analyses and “Young” soybean were planted [5 seed/pot]. The resulting plants were allowed to grow for 7 weeks when they were carefully separated from the soil and growth parameters measured. The roots and final soil samples were incubated to determine nematode populations. Nematode numbers in soil and roots were determined using the salad bowl incubation technique.

[3] = tested on: lance nematode; conditions: applications of ≧2 mgs KN3/Kg soil, 10 days after application
Description: as §1

[4] = tested on: beneficial microbivorous nematodes
Description: as §1

[5] = tested on: root-knot nematode; conditions: applications of ≧2 mgs KN3/Kg soil, 10 days after application
Description: as §1

[6] = tested on: microbivorous nematodes; conditions: 1-5 mgs KN3 per kg of soil, one week after application
Description: (§2) The liquid potassium azide compound was added to the soil in an aqueous solution of amounts of: 1, 2, 3, 4 and 5 mgs KN3 per kg of soil. The formulation used for this experiment 1% KN3 and 0.5% sodium lauryl sulfate. Soil samples were collected one week after the application of the KN3 solution for nematological analysis using such techniques as the salad bowl incubation technique.

[7] = tested on: reniform nematode
Description: as §2

[8] = tested on: pepper or tomato plants; conditions: seedlings transplanted 6 weeks after NaN3 application, 100 and 200 kg/ha
[9] = tested on: 'Huskie' tomato; conditions: tomato grown 3 months
Excerpt: (§3) The formulation contained 5% [w/v] […] Soil in the microplots was a sandy loam [pH=6.2; organic matter content <1.0%; C.E.C <10 meq/100 g soil] infested with the nematodes: Meloidogyne incognita, Paratrichodorus minor, Tylenchorhynchus claytoni, and Helicotylenchus dihystera 1]. Weeds in the plots were principally crabgrass [Digitaria sanguinalis], yellow nutsedge [Cyperus esculentum], pigweed [Amaranthus spp.], and morning glories [Ipomea spp., Jacquemontia tamnifolia].
(§4) The plots were covered with standard polyethylene [1 mil] tarp immediately after application of the chemical. After 10 days the cover was removed, the number of weeds was determined, soil samples for nematological analyses were taken and each plot was planted with two 4-week old ‘Huskie’ tomato seedlings. The plants were grown for 3 months and data were collected on yield, number of fruits, weed infestation and nematode populations.

[10] = tested on: plant parasitic nematodes; experiment: Microplot experiment, amine-protein stabilized NaN3, nematode control (Example 3); type: in vivo
Excerpt: as §3, §4

[11] = tested on: plant parasitic nematodes (cotton wilt complex Fusarium oxysporum f sp. vasinfectum×Meloidogyne incognita); conditions: all NaN3 dosages, 10-100 mgs a.i./kg soil; 8 weeks after planting
Description: (§5) The aqueous formulation was a solution containing 1% [w/v] […] After thorough mixing, the contents of a bag were poured into 1 L capacity, 10-cm-diam cylindrical plastic pots which were then covered with standard polyethylene [[…]]. Each rate and the no treatment control was represented by 7 replications [pots] arranged in a randomized complete block design. Ten days after application of the chemical solution, the pots were uncovered and 5 seed of “Rowden” cotton [Gossypium hirsutum] were planted in each pot. The resulting plants were grown for 8 weeks. When the plants were removed after 8 weeks, soil samples were collected for nematological analyses. The shoots and roots of the plants were weighed and the root systems were examined and indexed for disease severity symptoms. Following examination, the roots were incubated to determine nematode populations.

[12] = tested on: "Rowden" cotton
Description: as §5

[13] = tested on: 'Black Beauty' eggplant; conditions: eggplant grown 2 months; rates 0-5.0 g/plot
Excerpt: (§6) The square microplots of 1 ft^2 [929 cm^2] and 2 feet [61 cms] deep having an open-bottom were used. Each microplot was delimited by a terra-cotta chimney flue. The soil filling the plot was a sandy loam [pH=6.2; organic matter content <1.0%; C.E.C <10 meq/100 g soil] and was infested with the nematodes: Meloidogyne incognita [root-knot], Paratrichodorus minor [stubby root], Tylenchorhynchus claytoni [stunt], and Helicotylenchus dihystera [spiral]. Weeds introduced into the plots were principally crabgrass [Digitaria sanguinalis], yellow nutsedge [Cyperus esculentum], pigweed [Amaranthus spp.], and morning glories [Ipomea spp., Jacquemontia tamnifolia].
(§7) The plots were covered with standard polyethylene [1 mil] and after 10 days the cover was removed, the number of weeds was determined, soil samples for nematological analyses were taken and each plot was planted with two 3-week old ‘Black Beauty’ eggplant [Solanum melongena] seedlings. The plants were grown for 2 months and data were collected on yield, weed infestation and nematode populations.

[14] = tested on: weeds; remark: listed apart in the source
Excerpt: as §6, §7

[15] = tested on: plant parasitic nematodes
Excerpt: as §6, §7

[16] = tested on: coastal bermuda grass, yellow nutsedge and other weeds
Excerpt: (§8) The soil was a calcareous silty clay loam with pH 7.8 and <1% organic matter. […] Each dosage rate was delivered into pre-acidified soil as well as in non-acidified and administered using 3 different water levels: 3, 10, and 15 L/m^2. Acidification was with H2SO4 to lower soil pH to less than 7.00. […] After 3 weeks the soil was uncovered and a soil sample was removed for nematological analyses and the weeds were counted.

[17] = tested on: root-knot nematode; conditions: dosages of 100 and 200 kg/ha, 3 weeks after application
Excerpt: as §8

[18] = tested on: weeds; experiment: Microplot experiment, amine-protein stabilized NaN3, weed control (Example 3); type: in vivo; conditions: all but the three lowest rates of NaN3
Excerpt: as §3, §4

[19] = plots treated with ≦2.0 g NaN3 rates
[20] = three highest rates (3.0, 4.0, 5.0 g/plot)

Compound: [K+].[N-]=[N+]=[N-] [KN3, potassium azide]
- number of weeds ([1]; KN3 rates of 20-200 mg/kg of soil): declining in proportion to rates used
- control rates for weeds ([1]; rates of greater than 140 mg/kg of soil): over 80%
- plant response as measured by the weights of shoots and roots [2]: positive and pronounced
- lance nematode population in the preplant sample [3]: eliminated
- numbers of beneficial microbivorous nematodes ([4]; 1 and 2 mg application rates): pronounced stimulation
- populations of beneficial microbivorous nematodes ([4]; application rates <6 KN3/Kg, final soil): not adversely affected
- application rate necessary to significantly reduce or eliminate microbivorous nematodes ([4]; in vivo): > 4 mgs/Kg soils
- root-knot nematode population in the preplant sample [5]: eliminated
- numbers of microbivorous nematodes in response to increasing KN3 [6]: declined in an almost linear fashion
- numbers of reniform nematode in response to increasing KN3 ([7]; 1-5 mgs KN3 per kg of soil, one week after application): declined exponentially
- control of the reniform nematodes ([7]; rates of 4-5 mg of KN3 per kg of soil): ~100%

Compound: [N-]=[N+]=[N-].[Na+] [NaN3, sodium azide]
- phytotoxicity to pepper or tomato plants [8]: no evidence of phytotoxicity
- yield and number of fruits [9]: increased directly in response to NaN3 rates from 0-4 g/plot
- nematodes in soil samples at planting ([10]; 10 days after drench, 0.5-5.0 g/plot, controls had significant numbers of all species): did not contain nematodes
- plant parasitic nematodes at the end of the experiment ([10]; all rates of application): no plant parasitic nematodes
- plant parasitic nematodes in soil and roots [11]: eliminated from the soil and roots
- weights of shoots and roots ([12]; NaN3 rates 10-60 mgs/kg soil): Sharp increases
- weights of shoots and roots ([12]; NaN3 rates ≧70 mgs/kg soil): no additional weight increments
- cotton root health [root condition index] ([12]; all NaN3 dosages, 10-100 mgs/kg soil): markedly improved
- yield and number of fruits [13]: increased directly in response to NaN3 rates from 0-1.5 g/plot and leveled out
- weeds at planting ([14]; 10 days after drench, all but the two lowest rates of NaN3): no weeds
- weeds at the end of the experiment [14, 19]: significant populations
- weed infestation at the end of the experiment [14, 20]: no significant weed infestation
- nematodes in planting time soil samples ([15]; 10 days after drench, plots treated with 0.5-5.0 g sodium azide/plot, control plots infested with all species): no nematodes
- plant parasitic nematodes at the end of the experiment [15, 19]: significant populations
- plant parasitic nematodes at the end of the experiment [15, 20]: no plant parasitic nematodes
- effectiveness against nutsedge ([16]; 100 and 200 kg/ha): particularly effective
- weeds controlled ([16]; dosages of 100 and 200 kg/ha, 3 weeks after application): all weeds
- nematodes controlled [17]: greater than 90%
- weeds at planting time [18]: no weeds

Source: patent US6852341B2 (priority 2000, dated 2005)
